The text below walks through data of patent US20230271983A1, “FUNCTIONALIZED ISONITRILES AND PRODUCTS, PREPARATION AND USES THEREOF” (UNIVERSIDADE DE SANTIAGO DE COMPOSTELA, priority 2020, published 2023).

One assay addresses T1, Dopamine D2 receptor (Homo sapiens, UniProt P14416).
T1 construct: expressed in transfected cells; host or cells: CHO-D2 #S20 (membranes prepared in Biofarma laboratory)
The assay can be described thus: Dopamine D2 receptor competition binding, [3H]-Spiperone, CHO-D2 membranes. The note with it: 0.15 nM [3H]-Spiperone. The procedure: (§1) was evaluated in vitro using radioligand binding assays following a previously described protocol (J. Med. Chem., 2020, 63, 613-620, Eur. J. Med. Chem., 2019, 180, 673-689). Dopamine D2 receptor competition binding experiments were carried out in a polypropilene 96-well plate. In each well was incubated 10 μg of membranes from CHO-D2 #S20 cell line prepared in Biofarma laboratory (Lot: A002/22-07-2015, protein concentration=4185 μg/ml), 0.15 nM [3H]-Spiperone (80.2 Ci/mmol, 1 mCi/ml, Perkin Elmer NET1187001MC) and compounds studied and standard. Non-specific binding was determined in the presence of Sulpiride 10 μM (Sigma S112). The reaction mixture (Vt: 250 μl/well) was incubated at 25° C. for 120 min, 200 μL was transferred to GF/C 96-well plate (Millipore, Madrid, Spain) pretreated with 0.5% of PEI and treated with binding buffer (Tris-HCl 50 mM, EDTA 1 mM, MgCl2 5 mM, KCl 5 mM, NaCl 120 mM, pH=7.4), after was filtered and washed four times with 250 μl wash buffer (Tris-HCl 50 mM, NaCl 0.9%, pH=7.4), before measuring in a microplate beta scintillation counter (Microbeta Trilux, PerkinElmer). Dopamine D3 receptor competition binding experiments were carried out in a polypropilene 96-well plate. In each well was incubated 2 μg of membranes from D3 cell line (Perkin Elmer, ES-173M400UA, protein concentration=1000 μg/ml), 1 nM [3H]-Spiperone (68 Ci/mmol, 1 mCi/ml, Perkin Elmer NET1187001MC) and compounds studied and standard. Non-specific binding was determined in the presence of Haloperidol 1 μM (Sigma H1512). The reaction mixture (Vt: 250 μl/well) was incubated at 25° C. for 60 min, 200 μL was transferred to GF/C 96-well plate (Millipore, Madrid, Spain) pretreated with 0.5% of PEI and treated with binding buffer (Tris-HCl 50 mM, MgCl2 5 mM, pH=7.4), after was filtered and washed four times with 250 μl wash buffer (Tris-HCl 50 mM, pH=7.4), before measuring in a microplate beta scintillation counter (Microbeta Trilux, PerkinElmer, Madrid, Spain).

The next assay addresses T2, Dopamine D3 receptor (Homo sapiens, UniProt P35462).
T2 construct: purchased Perkin Elmer ES-173M400UA
As to the kind of experiment: Dopamine D3 receptor competition binding, [3H]-Spiperone. The note with it: 1 nM [3H]-Spiperone. The protocol:
as §1

A further assay deals with T3, D4 (Homo sapiens, UniProt P21917).
T3 sequence (P21917 1-419): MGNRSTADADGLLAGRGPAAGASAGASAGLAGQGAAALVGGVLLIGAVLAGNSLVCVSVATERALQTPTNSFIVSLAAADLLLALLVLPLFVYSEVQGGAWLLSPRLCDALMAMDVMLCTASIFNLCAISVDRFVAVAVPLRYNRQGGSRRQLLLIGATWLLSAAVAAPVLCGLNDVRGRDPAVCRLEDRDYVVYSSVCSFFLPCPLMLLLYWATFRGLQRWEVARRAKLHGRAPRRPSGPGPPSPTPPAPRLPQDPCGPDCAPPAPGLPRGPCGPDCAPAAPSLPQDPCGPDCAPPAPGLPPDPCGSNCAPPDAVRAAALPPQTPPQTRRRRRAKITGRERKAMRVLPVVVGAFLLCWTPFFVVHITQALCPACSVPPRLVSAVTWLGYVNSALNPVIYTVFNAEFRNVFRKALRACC
The assay can be described thus: Dopamine D4 radioligand binding.

For the next assay, the target named is T4, human A3AR (Homo sapiens, UniProt P0DMS8).
T4 construct: expressed in transfected cells; host or cells: HeLa
T4 sequence (P0DMS8 1-318): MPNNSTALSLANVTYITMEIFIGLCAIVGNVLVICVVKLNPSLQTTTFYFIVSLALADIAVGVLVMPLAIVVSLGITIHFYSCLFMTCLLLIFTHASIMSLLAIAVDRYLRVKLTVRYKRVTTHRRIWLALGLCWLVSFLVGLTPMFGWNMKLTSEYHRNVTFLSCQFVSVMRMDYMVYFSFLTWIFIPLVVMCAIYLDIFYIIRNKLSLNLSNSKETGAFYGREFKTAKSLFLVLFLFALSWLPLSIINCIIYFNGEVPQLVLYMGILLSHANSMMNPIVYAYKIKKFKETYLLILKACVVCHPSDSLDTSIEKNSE
As to the kind of experiment: A3AR radioligand competition binding, [3H]NECA, HeLa cell membranes. The note with it: for Ki: 10 nM [3H]NECA, 25° C. 180 min, read-out: A3 Ki; for inhibition at 1 µM: read-out: A3 specific binding inhibition percentage. The source says: (§2) was evaluate in vitro using radioligand binding assays following a previously described protocol (J. Med. Chem. 2019, 62, 9315-9330). Human ARs were expressed in transfected cell lines [e.g. chinese hamster ovary (CHO) cells (A1AR), human epithelial carcinoma (HeLa) cells (A2AAR and A3AR) and human embryonic kidney (HEK-293) cells (A2BAR)]. [^3H]DPCPX for A1AR and A2BAR, [^3H]NECA for A3AR, and [^3H]ZM241385 for A2AAR were employed as radioligands. […] Using Prism 5.0 software (GraphPad, San Diego, Calif.) K; values were acquired by fitting the data by non-linear regression. Results are the average of three experiments, each of them performed in duplicate. Radioligand binding competition assays were performed in vitro using human ARs expressed in transfected HeLa [hA2AAR (9 pmol/mg protein) and hA3AR (3 pmol/mg protein)], HEK-293 [hA2BAR (1.5 pmol/mg protein)] and CHO [hA1AR (1.5 pmol/mg protein)] cells. A brief description is given below. A1AR competition binding experiments were carried out in membranes from CHO-A, cells labelled with 1 nM [^3H]DPCPX (KD=0.7 nM). Non-specific binding was determined in the presence of 10 μM R-PIA. The reaction mixture was incubated at 25° C. for 60 min. A2AAR competition binding experiments were carried out in membranes from HeLa-A2A cells labelled with 3 nM [^3H]ZM241385 (KD=2 nM). Non-specific binding was determined in the presence of 50 μM NECA. The reaction mixture was incubated at 25° C. for 30 min. […] Non-specific binding was determined in the presence of 400 μM NECA. The reaction mixture was incubated at 25° C. for 30 min. A3AR competition binding experiments were carried out in membranes from HeLa-A3 cells labelled with 10 nM [^3H]NECA (KD=8.7 nM). Non-specific binding was determined in the presence of 100 μM R-PIA. The reaction mixture was incubated at 25° C. for 180 min. After the incubation time, membranes were washed and filtered, radioactivity was detected in a Microbeta Trilux reader (PerkinElmer).
(§3) The adenosinergic (affinity and selectivity) profile of several compounds of the invention was evaluated according to the above examples.
(In general: Displacement assays read how much labelled ligand stays bound in the presence of the test substance.)

A further assay concerns the target T5, human A1AR (Homo sapiens, UniProt P30542).
T5 construct: expressed in transfected cells; host or cells: CHO
T5 sequence (P30542 1-326): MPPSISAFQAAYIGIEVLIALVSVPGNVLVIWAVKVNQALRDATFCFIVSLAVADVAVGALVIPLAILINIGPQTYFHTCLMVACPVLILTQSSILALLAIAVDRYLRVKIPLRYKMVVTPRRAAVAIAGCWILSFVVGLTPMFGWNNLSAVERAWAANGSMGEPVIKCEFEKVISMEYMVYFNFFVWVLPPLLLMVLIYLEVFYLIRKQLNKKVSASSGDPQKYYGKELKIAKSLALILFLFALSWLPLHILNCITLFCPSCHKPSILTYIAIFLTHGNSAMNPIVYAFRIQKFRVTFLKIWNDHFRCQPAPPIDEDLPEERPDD
As to the kind of experiment: A1AR radioligand competition binding, [3H]DPCPX, CHO cell membranes. Particulars: for Ki: 1 nM [3H]DPCPX, 25° C. 60 min, read-out: A1 Ki; for inhibition at 1 µM: read-out: A1 specific binding inhibition percentage.
Description: as §2, §3

Another assay concerns the target T6, human A2AAR (Homo sapiens, UniProt P29274).
T6 construct: expressed in transfected cells; host or cells: HeLa
As to the kind of experiment: A2AAR radioligand competition binding, [3H]ZM241385, HeLa cell membranes. The note with it: for inhibition at 1 µM: read-out: A2A specific binding inhibition percentage; for Ki: 3 nM [3H]ZM241385, 25° C. 30 min, read-out: A2A Ki.
Description: as §2, §3

A further assay deals with T7, human A2BAR (Homo sapiens, UniProt P29275).
T7 construct: host or cells: HEK-293
T7 sequence (P29275 1-332): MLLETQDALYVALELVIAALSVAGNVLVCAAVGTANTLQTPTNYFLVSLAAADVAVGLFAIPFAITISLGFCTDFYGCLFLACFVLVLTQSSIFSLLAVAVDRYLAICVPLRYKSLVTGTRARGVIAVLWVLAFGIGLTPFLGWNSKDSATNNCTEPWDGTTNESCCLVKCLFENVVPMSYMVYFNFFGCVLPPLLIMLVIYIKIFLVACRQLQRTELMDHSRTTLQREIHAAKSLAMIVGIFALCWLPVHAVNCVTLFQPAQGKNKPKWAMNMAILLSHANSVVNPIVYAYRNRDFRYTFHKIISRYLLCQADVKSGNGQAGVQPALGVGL
The assay can be described thus: A2BAR radioligand competition binding, [3H]DPCPX, HEK-293 cell membranes. Particulars: for Ki: 25 nM [3H]DPCPX, 25° C. 30 min, read-out: A2B Ki; for inhibition at 1 µM: read-out: A2B specific binding inhibition percentage.
Description: as §2, §3

T1 sequence (P14416 whole entry, species assumed): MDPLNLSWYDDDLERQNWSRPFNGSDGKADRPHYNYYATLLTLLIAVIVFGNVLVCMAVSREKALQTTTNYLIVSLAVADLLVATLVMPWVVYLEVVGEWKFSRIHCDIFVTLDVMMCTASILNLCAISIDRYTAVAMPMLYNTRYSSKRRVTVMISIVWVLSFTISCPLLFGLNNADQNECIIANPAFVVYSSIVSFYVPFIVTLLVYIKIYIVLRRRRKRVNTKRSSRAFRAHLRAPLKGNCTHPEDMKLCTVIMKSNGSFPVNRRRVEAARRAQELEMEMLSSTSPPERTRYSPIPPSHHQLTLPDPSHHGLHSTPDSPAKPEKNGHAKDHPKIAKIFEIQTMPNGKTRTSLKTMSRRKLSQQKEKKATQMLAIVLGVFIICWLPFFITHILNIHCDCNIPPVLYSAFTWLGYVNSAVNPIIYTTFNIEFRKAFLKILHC
T2 sequence (P35462 whole entry): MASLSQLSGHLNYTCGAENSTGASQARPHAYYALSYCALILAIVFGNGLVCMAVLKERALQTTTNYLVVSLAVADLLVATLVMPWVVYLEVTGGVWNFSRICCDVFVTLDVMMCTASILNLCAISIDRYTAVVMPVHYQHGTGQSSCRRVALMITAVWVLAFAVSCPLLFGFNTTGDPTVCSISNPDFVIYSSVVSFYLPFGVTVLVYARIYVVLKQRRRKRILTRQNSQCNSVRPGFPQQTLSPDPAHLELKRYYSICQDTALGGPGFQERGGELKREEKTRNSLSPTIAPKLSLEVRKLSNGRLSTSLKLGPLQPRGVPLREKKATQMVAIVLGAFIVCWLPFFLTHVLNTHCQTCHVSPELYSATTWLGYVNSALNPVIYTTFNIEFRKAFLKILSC
T6 sequence (P29274 whole entry): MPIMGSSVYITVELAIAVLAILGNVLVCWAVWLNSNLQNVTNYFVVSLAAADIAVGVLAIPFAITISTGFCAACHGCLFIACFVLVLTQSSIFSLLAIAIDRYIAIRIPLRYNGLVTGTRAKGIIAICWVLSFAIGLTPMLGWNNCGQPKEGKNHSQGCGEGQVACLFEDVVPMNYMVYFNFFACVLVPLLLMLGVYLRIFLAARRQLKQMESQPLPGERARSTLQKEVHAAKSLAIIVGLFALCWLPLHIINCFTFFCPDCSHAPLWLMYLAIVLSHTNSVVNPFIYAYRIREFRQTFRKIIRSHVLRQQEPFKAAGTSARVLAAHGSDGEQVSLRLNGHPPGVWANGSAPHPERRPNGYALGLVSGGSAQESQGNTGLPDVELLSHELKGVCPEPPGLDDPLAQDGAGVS

Broadly, the Ki is the dissociation constant of the complex between target and ligand, obtained from inhibition or displacement. With `[C-]#[N+]CCCOCCOCCOCCCNC(=O)CN(C)C(=O)/C=C/c1ccc2sc(C(=O)NCCCCN3CCN(c4cccc(Cl)c4Cl)CC3)cc2c1`, the values for the Ki on Dopamine D2 receptor, at Dopamine D3 receptor and on D4 were 0.0011 µM, 0.001 µM and 0.5 µM, respectively.
Turning to `COc1ccc(-c2cc(NC(=O)CCC(=O)N(C)CC(=O)NCCCOCCOCCOCCCNC(=O)CN(C)C(=O)COc3ccc(-c4ccc5n4[B-](F)(F)[N+]4=C(c6cccs6)C=CC4=C5)cc3)nc(-c3ccc(OC)cc3)n2)cc1`, the Ki on human A3AR came to 0.00613 µM.
What is called inhibition is the share of the control response that was lost under treatment. Regarding `CCCn1c(=O)c2[nH]c(-c3ccc(OCC(=O)NCC(=O)N4CCN(CC(=O)NCCCOCCOCCOCCCNC(=O)CN(C)C(=O)COc5ccc(C6=[N+]7C(=Cc8ccc(-c9cccs9)n8[B-]7(F)F)C=C6)cc5)CC4)cc3)cc2n(C)c1=O`, the results for the Ki on human A1AR, at human A2BAR and on human A3AR were 0.471 µM, 0.0396 µM and 0.0427 µM, respectively. Further, the inhibition at 1 µM on human A2AAR came out at 23%.
The like results for `[C-]#[N+]CCCOCCOCCOCCCNC(=O)CN1CCN(C(=O)CNC(=O)COc2ccc(-c3cc4c([nH]3)c(=O)n(CCC)c(=O)n4C)cc2)CC1` were, in that order, 0.101 µM, 0.0786 µM, 0.195 µM and 13%.
Consider `CCCn1c(=O)c2[nH]c(-c3ccc(OCC(=O)NCC(=O)N4CCN(C(C)(C)C(=O)NCCCOCCOCCOCCCNC(=O)CN(C)C(=O)COc5ccc(C6=[N+]7C(=Cc8ccc(-c9cccs9)n8[B-]7(F)F)C=C6)cc5)CC4)cc3)cc2n(C)c1=O`, for which the inhibition at 1 µM was 46% on human A1AR, 1% at human A2AAR and 37% on human A3AR. Also, the Ki on human A2BAR amounted to 0.25 µM.
Take `CN(CC(=O)NCCCOCCOCCOCCCNC(=O)CN(C)C(=O)CC(C)(C)CC(=O)Nc1c(F)cc(C(=O)Nc2nccs2)cc1F)C(=O)CCCCCN1/C(=C/C=C/C=C/C2=[N+](C)c3ccccc3C2(C)C)C(C)(C)c2ccccc21`: the results for the inhibition at 1 µM on human A1AR, at human A2BAR and at human A3AR were 31%, 18% and 37%, respectively. On human A2AAR, the Ki was 0.00835 µM.
In the case of `CN(CC(=O)NCCCOCCOCCOCCCNC(=O)CN(C)C(=O)COc1ccc(-c2ccc3n2[B-](F)(F)[N+]2=C(c4cccs4)C=CC2=C3)cc1)C(=O)CCC(=O)Nc1ccc(CCN2CN(c3ccccc3)C3(CCN(CCCC(=O)c4ccc(F)cc4)CC3)C2=O)cc1`, the values for the Ki on Dopamine D2 receptor and on Dopamine D3 receptor were 0.00106 µM and 0.148 µM, respectively.
Take `CN(CC(=O)NCCOCCOCCNC(=O)CN(C)C(=O)CC(C)(C)CC(=O)Nc1c(F)cc(C(=O)Nc2nccs2)cc1F)C(=O)CCCCCN1/C(=C/C=C/C=C/C2=[N+](C)c3ccccc3C2(C)C)C(C)(C)c2ccccc21`: the inhibition at 1 µM at human A1AR was 33%; at human A2BAR, 59%; at human A3AR it was 54%. Moreover, the Ki at human A2AAR came out at 0.42 µM.
Consider `COc1ccc(-c2cc(NC(=O)COCC(=O)N(C)CC(=O)NCCOCCOCCOCCOCCNC(=O)CN(C)C(=O)CCCOc3ccc(CN4CCN(c5ccccc5OC)CC4)cc3OC)nc(-c3ccc(OC)cc3)n2)cc1`, for which the inhibition at 1 µM at human A1AR stood at 8%; at human A2AAR, 5%; on human A2BAR, 4%. For the same molecule, the Ki on human A3AR turned out to be 0.01 µM; at Dopamine D2 receptor, 0.03 µM; on Dopamine D3 receptor, 2.6 µM.
